{"source": "paper PMC8131363", "about": "(Scientific Reports, 2021)", "key": {"[1]": {"tested_on": "cCaSR", "conditions": "for EC50 Ago (M): Supplementary Table I, dash = no activity"}, "[2]": {"tested_on": "cCaSR", "test": "cCaSR PAM luminescence assay, double injection with 0.5 mM CaCl2, HEK293/T-REx/natClytin-cCaSR", "conditions": "Supplementary Table I, PAM assay, dash = no activity"}, "[3]": {"tested_on": "cCaSR", "test": "cCaSR transiently expressed in HEK293/natClytin, agonist luminescence assay", "format": "cell-based, Felis catus", "conditions": "transiently expressed cCaSR; > 3 mM = maximal response not reached", "description": "(§1) The coding sequence of the Felis catus[52] and Homo sapiens[53] CaSR gene was synthesised by GeneArt (Thermo Fisher Scientific). The cat coding sequence was excised from the GeneArt construct and inserted in pcDNA3.1 for constitutive and transient expression or pcDNA5/ TO for inducible expression. For the human sequence the pcDNA6 vector as delivered by GeneArt was used without further sub-cloning.\n(§2) All transient transfections were performed with Lipofectamine 2000 (Invitrogen) according to the manufacturer’s protocol."}, "[4]": {"target": "T1, hCaSR (Homo sapiens, UniProt P41180)", "T1 construct": "expressed in transfected cells; host or cells: HEK293/natClytin (transient, pcDNA6 as delivered by GeneArt)", "T1 sequence (P41180 20-1078)": "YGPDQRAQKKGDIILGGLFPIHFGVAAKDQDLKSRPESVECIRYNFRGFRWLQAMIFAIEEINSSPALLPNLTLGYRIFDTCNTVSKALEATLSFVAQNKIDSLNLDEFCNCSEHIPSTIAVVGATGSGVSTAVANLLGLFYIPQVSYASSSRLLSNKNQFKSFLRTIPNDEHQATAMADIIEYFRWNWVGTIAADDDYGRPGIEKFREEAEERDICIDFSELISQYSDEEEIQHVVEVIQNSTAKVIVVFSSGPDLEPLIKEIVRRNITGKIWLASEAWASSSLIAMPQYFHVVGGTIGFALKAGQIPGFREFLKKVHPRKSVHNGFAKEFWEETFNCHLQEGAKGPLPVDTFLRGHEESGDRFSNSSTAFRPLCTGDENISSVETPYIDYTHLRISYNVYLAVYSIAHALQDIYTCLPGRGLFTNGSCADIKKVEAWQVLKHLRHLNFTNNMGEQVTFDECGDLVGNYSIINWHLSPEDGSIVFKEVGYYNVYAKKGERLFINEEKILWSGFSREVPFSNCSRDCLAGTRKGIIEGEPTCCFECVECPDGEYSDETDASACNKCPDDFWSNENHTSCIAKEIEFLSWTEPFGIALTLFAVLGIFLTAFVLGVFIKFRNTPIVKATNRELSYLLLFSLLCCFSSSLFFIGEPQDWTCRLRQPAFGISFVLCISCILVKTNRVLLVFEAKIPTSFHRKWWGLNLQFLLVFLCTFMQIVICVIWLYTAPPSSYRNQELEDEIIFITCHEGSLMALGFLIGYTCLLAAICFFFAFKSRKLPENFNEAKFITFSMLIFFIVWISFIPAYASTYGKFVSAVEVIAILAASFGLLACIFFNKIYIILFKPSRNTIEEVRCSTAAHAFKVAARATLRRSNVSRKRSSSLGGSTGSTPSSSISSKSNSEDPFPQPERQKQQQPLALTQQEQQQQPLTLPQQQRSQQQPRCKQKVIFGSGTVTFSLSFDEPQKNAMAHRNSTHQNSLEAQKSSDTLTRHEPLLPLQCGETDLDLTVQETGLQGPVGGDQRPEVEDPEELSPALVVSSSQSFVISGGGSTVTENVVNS", "test": "hCaSR transiently expressed in HEK293/natClytin, agonist luminescence assay", "format": "cell-based", "description": "as §1, §2"}, "[5]": {"target": "T2, cCaSR (Felis catus, UniProt C7FF08)", "T2 sequence (C7FF08 1-1081)": "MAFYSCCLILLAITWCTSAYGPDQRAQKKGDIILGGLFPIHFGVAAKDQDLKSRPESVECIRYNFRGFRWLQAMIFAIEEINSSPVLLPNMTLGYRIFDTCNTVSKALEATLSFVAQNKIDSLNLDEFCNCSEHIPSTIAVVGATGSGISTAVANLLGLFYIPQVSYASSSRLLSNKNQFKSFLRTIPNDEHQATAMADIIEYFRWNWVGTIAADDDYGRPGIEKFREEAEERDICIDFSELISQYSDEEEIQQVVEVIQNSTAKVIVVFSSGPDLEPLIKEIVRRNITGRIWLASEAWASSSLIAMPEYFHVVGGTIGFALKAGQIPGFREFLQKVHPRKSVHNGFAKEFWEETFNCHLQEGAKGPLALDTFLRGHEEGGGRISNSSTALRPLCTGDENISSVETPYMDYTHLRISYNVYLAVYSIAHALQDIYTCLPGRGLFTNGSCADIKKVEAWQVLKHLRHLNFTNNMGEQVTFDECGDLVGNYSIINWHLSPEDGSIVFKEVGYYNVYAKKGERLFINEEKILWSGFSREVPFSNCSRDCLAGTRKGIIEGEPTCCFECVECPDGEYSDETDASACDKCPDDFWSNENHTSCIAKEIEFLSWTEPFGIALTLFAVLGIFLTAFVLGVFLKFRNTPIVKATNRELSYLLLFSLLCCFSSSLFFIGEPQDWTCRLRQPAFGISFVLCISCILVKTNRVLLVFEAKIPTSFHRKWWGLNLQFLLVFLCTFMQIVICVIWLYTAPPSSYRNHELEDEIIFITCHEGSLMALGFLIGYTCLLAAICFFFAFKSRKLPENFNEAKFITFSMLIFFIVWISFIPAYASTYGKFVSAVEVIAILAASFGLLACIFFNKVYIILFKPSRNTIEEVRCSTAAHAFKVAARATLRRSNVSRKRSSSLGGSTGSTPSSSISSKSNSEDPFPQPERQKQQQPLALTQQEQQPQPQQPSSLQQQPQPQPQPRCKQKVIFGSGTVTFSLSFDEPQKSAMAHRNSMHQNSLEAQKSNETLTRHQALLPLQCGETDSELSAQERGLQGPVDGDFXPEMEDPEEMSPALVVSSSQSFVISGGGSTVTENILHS", "test": "cCaSR transiently expressed in HEK293/natClytin, agonist luminescence assay", "format": "cell-based", "description": "as §1, §2"}, "[6]": {"target": "T2, cCaSR"}, "[7]": {"target": "T2, cCaSR", "test": "cCaSR PAM luminescence assay, double injection with 0.5 mM CaCl2, HEK293/T-REx/natClytin-cCaSR", "conditions": "Supplementary Table I, PAM assay, dash = no activity"}, "[8]": {"target": "T2, cCaSR", "test": "cell-based"}, "[9]": {"target": "domestic cat Calcium Sensing Receptor (cCaSR) (Felis catus)"}, "[10]": {"target": "domestic cat Calcium Sensing Receptor (cCaSR) (Felis catus)", "remark": "listed apart in the source"}}, "note": "Read-outs that look alike come from different tables or passages of the source."}
{"compound": "CNc1ccc2oc(C[C@@H]3OC4(CC[C@@H]3C)O[C@H](C(C)C(=O)c3ccc[nH]3)[C@H](C)C[C@H]4C)nc2c1C(=O)O", "note": "(stereo partly drawn) [Calcium Ionophore, reference compound]", "values": [{"measurement": "EC50 Ago (M)", "setting": "[1]; agonist assay", "value": "-"}, {"measurement": "EC50 PAM (M)", "setting": "[2]", "value": "-"}]}
{"compound": "CN[C@@H]1[C@@H](O)[C@@H](O[C@@H]2[C@@H](O)[C@H](O[C@H]3O[C@H]([C@@H](C)O)[C@@H](O)[C@H](O)[C@H]3N)[C@@H](N)C[C@H]2N)OC[C@]1(C)O", "note": "[Geneticin, reference compound]", "values": [{"measurement": "EC50", "setting": "[3]", "value": 3000, "unit": "µM"}, {"measurement": "EC50 Ago (M)", "setting": "[1]; agonist assay", "value": "-"}, {"measurement": "EC50", "setting": "[1]; read-out: cCaSR activity, agonist assay, stable inducible cCaSR line, at least three wells", "value": "> 10000", "unit": "µM"}, {"measurement": "EC50", "setting": "[1]; read-out: cCaSR stable EC50, […], > 3 mM = maximal response not reached", "value": 1100, "unit": "µM"}, {"measurement": "EC50 PAM (M)", "setting": "[2]", "value": "-"}, {"measurement": "EC50", "setting": "[4]; transiently expressed hCaSR, > 3 mM = maximal response not reached, read-out: hCaSR EC50", "value": 3600, "unit": "µM"}]}
{"compound": "NCCCCNCCCN", "note": "[Spermidine]", "values": [{"measurement": "EC50", "setting": "[5]", "value": 1100, "unit": "µM"}, {"measurement": "agonist activity on cCaSR (in words)", "setting": "[6]", "value": "agonists"}, {"measurement": "EC50 PAM (M)", "setting": "[7]", "value": "-"}, {"measurement": "EC50", "setting": "[8]; EC50 (M), agonist assay, stable inducible cCaSR line, > 0.01 M = maximal response not reached", "value": 0.00249, "unit": "M"}, {"measurement": "EC50", "setting": "[8]; EC50 Ago (M), Supplementary Table I, agonist assay, > 0.01 M = maximal response not reached", "value": 0.0025, "unit": "M"}, {"measurement": "EC50", "setting": "[8]; cCaSR activity, agonist assay, stable inducible cCaSR line, at least three wells", "value": "0.001 to 0.01", "unit": "M"}, {"measurement": "EC50", "setting": "[8]; cCaSR stable EC50(mM), stably expressed cCaSR, Fig. 6b, > 3 mM = maximal response not reached", "value": 0.0023, "unit": "M"}, {"measurement": "EC50", "setting": "[4]", "value": 1300, "unit": "µM"}]}
{"compound": "Poly-L-arginine (peptide)", "values": [{"measurement": "EC50 of agonist activity, luminescence (natClytin) in HEK T-Rex/natClytin cells inducibly expressing cCaSR, calcium-free buffer; activity grade +++", "setting": "[9]", "value": 1.01, "unit": "µM"}, {"measurement": "EC50 for cCaSR (stably and transiently expressed) against the EC50 for hCaSR, luminescence dose response in HEK293/natClytin cells", "setting": "[10]", "value": 2.5, "unit": "fold"}]}
